For assay [1], the target named is T1, neutral endopeptidase enzyme (NEP) (Rattus norvegicus, UniProt P07861).
T1 construct: Membranes from kidney cortex were prepared according to the following procedure; from tissue; host or cells: kidney cortex membranes of male Sprague-Dawley rats
T1 sequence (P07861 1-750): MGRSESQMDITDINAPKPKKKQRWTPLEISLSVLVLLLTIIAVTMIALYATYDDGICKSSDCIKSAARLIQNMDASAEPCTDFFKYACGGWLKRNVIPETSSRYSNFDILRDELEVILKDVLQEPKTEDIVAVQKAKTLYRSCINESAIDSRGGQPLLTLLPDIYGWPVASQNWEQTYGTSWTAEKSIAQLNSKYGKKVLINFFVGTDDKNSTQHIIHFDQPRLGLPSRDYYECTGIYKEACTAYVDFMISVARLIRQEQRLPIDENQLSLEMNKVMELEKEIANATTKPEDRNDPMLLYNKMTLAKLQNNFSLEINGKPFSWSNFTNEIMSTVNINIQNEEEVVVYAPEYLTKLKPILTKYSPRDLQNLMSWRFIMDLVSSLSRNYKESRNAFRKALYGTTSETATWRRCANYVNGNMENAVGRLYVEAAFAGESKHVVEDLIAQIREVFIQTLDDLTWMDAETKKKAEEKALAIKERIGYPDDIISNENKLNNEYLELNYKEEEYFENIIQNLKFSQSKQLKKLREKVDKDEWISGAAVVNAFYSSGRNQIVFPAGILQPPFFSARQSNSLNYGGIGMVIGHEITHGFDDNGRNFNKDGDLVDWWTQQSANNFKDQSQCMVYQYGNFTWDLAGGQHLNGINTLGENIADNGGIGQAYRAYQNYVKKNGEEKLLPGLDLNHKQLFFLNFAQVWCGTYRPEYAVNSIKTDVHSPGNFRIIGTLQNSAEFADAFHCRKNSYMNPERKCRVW
Description: In vitro NEP-inhibitory activity (inhibition of formation of [^3 H]-Tyr-Gly-Gly from [^3 H][Leu^5 ]-enkephaline in kidney cortex membranes). The class given is biochemical, male Sprague-Dawley rats. The following applies: rat kidney cortex membranes 5 μg/ml protein; [^3 H][Leu^5 ]-enkephaline 15 nM; Bestatin 1 mM; pH 7.4; 20 minutes at 30° C. On the procedure: The NEP-inhibitory activity of the compounds of formula I was evaluated by means of in vitro tests as percentage of inhibition in the formation of [^3 H]-Tyr-Gly-Gly, a metabolite of [^3 H][Leu^5 ]-enkephaline(see example 26).
a) In vitro NEP-inhibitory activity
The NEP-inhibitory activity in vitro was evaluated according to the method reported in the literature by C. Llorens et al., Eur. J. Pharmacol., 69, (1981), 113-116.
Membranes from kidney cortex were prepared according to the following procedure.
By working at 0°-4° C. the kidneys were removed from killed male Sprague-Dawley rats weighing approximately 300 g.
Cortex was carefully dissected, finely minced and suspended in homogenization buffer (10 mM sodium phosphate pH 7.4 containing 1 mM MgCl2, 30 mM NaCl, 0.02% NaN3) 1:15 weight/volume.
The tissue was then homogenized for 30 seconds using an Ultra-Turrax homogenizer.
Approximately 10 ml of homogenate were layered over 10 ml of sucrose (41% weight/volume) and centrifuged at 31200 rpm for 30 minutes at 4° C. in a fixed angle rotor.
The membranes were collected from the buffer/sucrose interface, washed twice with 50 mM TRIS/HCl buffer (pH 7.4) and resuspended into the same buffer for storage.
The membranes were stored in small aliquots at -80° C. until use. The NEP-inhibitory activity was evaluated by using the following method.
Aliquots of the membrane suspension prepared as above described (concentration 5 μg/ml of proteins) were preincubated in the presence of an aminopeptidase inhibitor (Bestatin - 1 mM) for 10 minutes at 30° C.
[^3 H][Leu^5 ]-enkephaline (15 nM) and buffer TRIS/HCl pH 7.4 (50 mM) were added in order to obtain a final volume of 100 μl.
Incubation (20 minutes at 30° C.) was stopped by adding 0.1M HCl (100 μl).
The formation of the metabolite [^3 H]Tyr-Gly-Gly was quantified by chromatography on polystyrene columns (Porapak Q).
The percentage of inhibition of the metabolite formation in the membrane preparations treated with the compounds of formula I and the reference compounds in comparison to the untreated membrane preparations was expressed as IC50 value (nM).

Assay [2] has as its target T2, endothelin converting enzyme (ECE) (Oryctolagus cuniculus, UniProt A0A5F9CTJ8).
T2 construct: The left saphenous artery was removed and cleaned of the surrounding tissue; from tissue; host or cells: left saphenous artery rings of male New Zealand rabbits, with endothelium
T2 sequence (A0A5F9CTJ8 1-783): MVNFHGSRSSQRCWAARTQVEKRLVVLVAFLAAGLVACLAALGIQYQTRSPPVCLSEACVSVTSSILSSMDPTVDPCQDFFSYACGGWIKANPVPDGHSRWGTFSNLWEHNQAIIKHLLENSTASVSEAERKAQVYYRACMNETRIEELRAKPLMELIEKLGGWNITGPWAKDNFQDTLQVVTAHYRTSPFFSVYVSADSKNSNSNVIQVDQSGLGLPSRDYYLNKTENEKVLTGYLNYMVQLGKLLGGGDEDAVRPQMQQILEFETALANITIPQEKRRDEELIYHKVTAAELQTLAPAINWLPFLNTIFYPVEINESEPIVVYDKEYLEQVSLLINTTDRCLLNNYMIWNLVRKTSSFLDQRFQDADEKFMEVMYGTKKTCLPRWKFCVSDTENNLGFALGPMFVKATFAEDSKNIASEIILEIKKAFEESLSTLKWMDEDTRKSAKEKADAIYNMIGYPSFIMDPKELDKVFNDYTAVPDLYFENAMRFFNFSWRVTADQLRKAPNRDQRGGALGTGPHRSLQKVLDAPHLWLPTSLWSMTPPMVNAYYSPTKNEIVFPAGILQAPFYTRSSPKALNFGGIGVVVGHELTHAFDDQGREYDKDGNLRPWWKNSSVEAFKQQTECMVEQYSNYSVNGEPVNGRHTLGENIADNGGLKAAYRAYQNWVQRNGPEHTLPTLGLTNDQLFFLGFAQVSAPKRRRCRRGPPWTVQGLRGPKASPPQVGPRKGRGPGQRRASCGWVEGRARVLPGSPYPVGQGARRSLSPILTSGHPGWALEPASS
Kind of assay: In vitro ECE-inhibitory activity (human Big endothelin-induced contraction of rabbit left saphenous artery rings; inhibition of endothelin formation). The assay is classed as cell-based, Male New Zealand rabbits. The following applies: human Big endothelin 3×10^-8 M, compound in contact 30 minutes, 37° C. On the procedure:
b) In vitro ECE-inhibitory activity
The ECE-inhibitory activity in vitro was evaluated according to the method reported in the literature by M. Auget et al., Eur. J. Pharmacol., 224, (1992), 101-102.
Male New Zealand rabbits (2.5-3 Kg) were sacrificed with an excess of pentobarbital and blood was drawn.
The left saphenous artery was removed and cleaned of the surrounding tissue, cut into 2-3 mm length rings and suspended in 25 ml baths containing Krebs-Henseleit solution at 37° C. and oxygenated with O2 containing 5% CO2. This solution was composed of (mM); NaCl, 118; KCl, 4.7; CaCl2, 2.5; KH2 PO4, 1.2; MgSO4, 1.2; NaHCO3, […]; glucose, 11. The preparations were kept under tension and readjusted to 1 g during the equilibration period (1 hour).
After said period, the preparations were exposed to a submaximal concentration of norepinephrine 1 μM which was repeated every 30 minutes until the response was stable. A concentration of acetylcholine 10 μM on the contraction of norepinephrine verified the presence of the endothelium.
After 30 minutes from the last contraction due to norepinephrine, a concentration of human Big endothelin 3×10^-8 M was administered. After reaching the plateau the preparations were washed for 30 minutes and a concentration 1 μM of the compound to be tested or of its vehicle was administered keeping it in contact for 30 minutes, after that a concentration of Big endothelin 3×10^-8 M was administered again. The percentage of ECE-inhibition was expressed as IC50 value (nM).

In the case of `O=C(O)Cc1csc(NC(=O)C(CS)Cc2ccccc2)n1` (stereo not drawn) [R-2, N-(4-carboxymethyl-2-thiazolyl)-3-mercapto-2-benzyl-propanamide, reference compound], the IC50 (commonly the concentration that inhibits the measured activity by half) in assay [1] was determined as 8.8 nM.
For the compound `O=C(O)c1cc(NC(=O)C(CS)Cc2ccc(Cl)cc2)c[nH]1` (stereo not drawn) [compound 9, N-(2-carboxy-4-pyrrolyl)-2-(4-chlorobenzyl)-3-mercapto-propanamide], the results for the IC50 in assay [1] and in assay [2] were 2.7 nM and 4 nM, respectively.
In the case of `O=C(O)c1cccc(NC(=O)C(CS)Cc2ccccc2)c1` (stereo not drawn) [R-1, N-(3-carboxyphenyl)-3-mercapto-2-benzyl-propanamide, reference compound], the IC50 in assay [1] stood at 3.12 nM.
In the case of `O=C(O)c1cc(NC(=O)C(CS)Cc2ccccc2)c[nH]1` (stereo not drawn) [compound 4, N-(2-carboxy-4-pyrrolyl)-3-mercapto-2-benzyl-propanamide], the IC50 turned out to be 2.1 nM in assay [1] and 2 nM in assay [2].
The corresponding values for `O=C(O)c1cc(NC(=O)C(CS)Cc2cccnc2)cs1` (stereo not drawn) [compound 6, N-(2-carboxy-4-thienyl)-3-mercapto-2-(3-pyridylmethyl)-propanamide] are 12.6 nM and 1 nM.
On the same counts, the results for `COc1cccc(CC(CS)C(=O)Nc2c[nH]c(C(=O)O)c2)c1` (stereo not drawn) [compound 13, N-(2-carboxy-4-pyrrolyl)-3-mercapto-2-(3-methoxybenzyl)-propanamide] are 5 nM and 3 nM.
On the same counts, the results for `O=C(O)c1cc(NC(=O)C(CS)Cc2ccccc2)cs1` (stereo not drawn) [compound 2, N-(2-carboxy-4-thienyl)-3-mercapto-2-benzyl-propanamide] are 1.5 nM and 2 nM.
